From ChEMBL document CHEMBL3885881, “DrugMatrix”

Species: Rattus norvegicus
Test: DrugMatrix - Regimen: Daily Repeat
Assay type: toxicity, organism-based, Sprague-Dawley
Design: regimen Daily Repeat, gender Male, age 6-8 weeks
Conditions: in vivo, po, route oral GAVAGE, […]; for ABSOLUTE BASOPHIL / ABSOLUTE EOSINOPHIL / ABSOLUTE LYMPHOCYTE / ABSOLUTE MONOCYTE / ABSOLUTE SEGMENTED NEUTROPHIL / BASOPHIL / EOSINOPHIL / ERYTHROCYTE COUNT / HEMATOCRIT / HEMOGLOBIN / LEUKOCYTE COUNT / LYMPHOCYTE / MEAN CORPUSCULAR HEMOGLOBIN / MEAN CORPUSCULAR HEMOGLOBIN CONCENTRATION / MONOCYTE / NEUTROPHIL / NUCLEATED RED BLOOD CELLS / PLATELET COUNT: tissue Blood; for ALANINE AMINOTRANSFERASE / ALBUMIN / ALKALINE PHOSPHATASE / ASPARTATE AMINOTRANSFERASE / BLOOD UREA NITROGEN / CARBON DIOXIDE / CHLORIDE / CHOLESTEROL / CREATINE PHOSPHOKINASE / CREATININE / GLUCOSE / LACTATE DEHYDROGENASE / LIPASE / PHOSPHORUS / POTASSIUM / SODIUM / TOTAL BILIRUBIN / TOTAL PROTEIN / URIC ACID: tissue Plasma
[1] = 0 mg/kg, 72 h, dose level Control, time 3 day
[2] = 0 mg/kg, 120 h, dose level Control, time 5 day
[3] = 0.2 mg/kg, 72 h, dose level Low, time 3 day

## CCOC(=O)C1=C(COCCN)NC(C)=C(C(=O)OC)C1c1ccccc1Cl (stereo not given) [AMLODIPINE]
[1]
  ABSOLUTE BASOPHIL: 0 CELLS/uL
  ABSOLUTE EOSINOPHIL: 70.67 CELLS/uL
  ABSOLUTE LYMPHOCYTE: 12761.5 CELLS/uL
  ABSOLUTE MONOCYTE: 214.17 CELLS/uL
  ABSOLUTE SEGMENTED NEUTROPHIL: 987 CELLS/uL
  BASOPHIL: 0%
  EOSINOPHIL: 0.5%
  ERYTHROCYTE COUNT: 5.61 x10E6/uL
  HEMATOCRIT: 35.22%
  HEMOGLOBIN: 13.57 G/DL
  LEUKOCYTE COUNT: 14.03 x10E3/uL
  LYMPHOCYTE: 91%
  MEAN CORPUSCULAR HEMOGLOBIN: 24.25 pg
  MEAN CORPUSCULAR HEMOGLOBIN CONCENTRATION: 38.52 G/DL
  MONOCYTE: 1.5%
  NEUTROPHIL: 7%
  NUCLEATED RED BLOOD CELLS: 0 /100WBC
  PLATELET COUNT: 997.5 x10E3/uL
  ALANINE AMINOTRANSFERASE: 66.5 u/L
  ALBUMIN: 3.98 G/DL
  ALKALINE PHOSPHATASE: 350 u/L
  ASPARTATE AMINOTRANSFERASE: 83.83 u/L
  BLOOD UREA NITROGEN: 12.33 mg/dL
  CARBON DIOXIDE: 30.33 mmol/L
  CHLORIDE: 100 MEQ/L
  CHOLESTEROL: 75 mg/dL
  CREATINE PHOSPHOKINASE: 200 u/L
  CREATININE: 0.17 mg/dL
  GLUCOSE: 170 mg/dL
  LACTATE DEHYDROGENASE: 89.33 u/L
  LIPASE: 10.33 u/L
  PHOSPHORUS: 10.88 mg/dL
  POTASSIUM: 6.13 MEQ/L
  SODIUM: 140.53 MEQ/L
  TOTAL BILIRUBIN: 0.2 mg/dL
  TOTAL PROTEIN: 5.67 G/DL
  URIC ACID: 1.6 mg/dL
[2]
  ABSOLUTE BASOPHIL: 0 CELLS/uL
  ABSOLUTE EOSINOPHIL: 0 CELLS/uL
  ABSOLUTE LYMPHOCYTE: 9526.67 CELLS/uL
  ABSOLUTE MONOCYTE: 134.17 CELLS/uL
  ABSOLUTE SEGMENTED NEUTROPHIL: 922.5 CELLS/uL
  BASOPHIL: 0%
  EOSINOPHIL: 0%
  ERYTHROCYTE COUNT: 5.58 x10E6/uL
  HEMATOCRIT: 34.78%
  HEMOGLOBIN: 13.5 G/DL
  LEUKOCYTE COUNT: 10.58 x10E3/uL
  LYMPHOCYTE: 90.17%
  MEAN CORPUSCULAR HEMOGLOBIN: 24.27 pg
  MEAN CORPUSCULAR HEMOGLOBIN CONCENTRATION: 38.82 G/DL
  MONOCYTE: 1.17%
  NEUTROPHIL: 8.67%
  NUCLEATED RED BLOOD CELLS: 0.17 /100WBC
  PLATELET COUNT: 807.17 x10E3/uL
  ALANINE AMINOTRANSFERASE: 66.83 u/L
  ALBUMIN: 3.73 G/DL
  ALKALINE PHOSPHATASE: 286.17 u/L
  ASPARTATE AMINOTRANSFERASE: 142.33 u/L
  BLOOD UREA NITROGEN: 14.67 mg/dL
  CARBON DIOXIDE: 25.5 mmol/L
  CHLORIDE: 89.17 MEQ/L
  CHOLESTEROL: 75.17 mg/dL
  CREATINE PHOSPHOKINASE: 310.67 u/L
  CREATININE: 0.2 mg/dL
  GLUCOSE: 153 mg/dL
  LACTATE DEHYDROGENASE: 1594 u/L
  LIPASE: 14.83 u/L
  PHOSPHORUS: 11.28 mg/dL
  POTASSIUM: 8.46 MEQ/L
  SODIUM: 126.88 MEQ/L
  TOTAL BILIRUBIN: 0.37 mg/dL
  TOTAL PROTEIN: 5.53 G/DL
  URIC ACID: 1.52 mg/dL
[3]
  ABSOLUTE BASOPHIL: 0 CELLS/uL
  ABSOLUTE EOSINOPHIL: 0 CELLS/uL
  ABSOLUTE LYMPHOCYTE: 9376 CELLS/uL
  ABSOLUTE MONOCYTE: 215 CELLS/uL
  ABSOLUTE SEGMENTED NEUTROPHIL: 975.67 CELLS/uL
  BASOPHIL: 0%
  EOSINOPHIL: 0%
  ERYTHROCYTE COUNT: 5.44 x10E6/uL
  HEMATOCRIT: 34.4%
  HEMOGLOBIN: 13.67 G/DL
  LEUKOCYTE COUNT: 10.57 x10E3/uL
  LYMPHOCYTE: 88.67%
  MEAN CORPUSCULAR HEMOGLOBIN: 25.13 pg
  MEAN CORPUSCULAR HEMOGLOBIN CONCENTRATION: 39.73 G/DL
  MONOCYTE: 2%
  NEUTROPHIL: 9.33%
  NUCLEATED RED BLOOD CELLS: 0 /100WBC
  PLATELET COUNT: 1115 x10E3/uL
  ALANINE AMINOTRANSFERASE: 74.33 u/L
  ALBUMIN: 4 G/DL
  ALKALINE PHOSPHATASE: 391 u/L
  ASPARTATE AMINOTRANSFERASE: 107.33 u/L
  BLOOD UREA NITROGEN: 11 mg/dL
  CARBON DIOXIDE: 28.67 mmol/L
  CHLORIDE: 100.67 MEQ/L
  CHOLESTEROL: 69.67 mg/dL
  CREATINE PHOSPHOKINASE: 1227 u/L
  CREATININE: 0.14 mg/dL
  GLUCOSE: 178 mg/dL
  LACTATE DEHYDROGENASE: 183 u/L
  LIPASE: 11 u/L
  PHOSPHORUS: 10.73 mg/dL
  POTASSIUM: 5.94 MEQ/L
  SODIUM: 141 MEQ/L
  TOTAL BILIRUBIN: 0.2 mg/dL
  TOTAL PROTEIN: 5.73 G/DL
